The values below are quoted from earlier work in PubChem BioAssay AID1259409 (Chemical Carcinogenesis Research Information System (CCRIS), 2018).

For the data set, the system named is rodent chemically induced tumor inhibition, incidence and multiplicity. Put plainly: CCRIS tumor inhibitor studies. The settings on record: Route [Inhibitor]: ORAL, Species: RAT, Promoter: NONE USED. An excerpt: The CCRIS database contains chemical records with carcinogenicity, mutagenicity, tumor promotion, and tumor inhibition test results. It was developed by the National Cancer Institute (NCI). Data are derived from studies cited in primary journals, current awareness tools, NCI reports, and other sources. Test results have been reviewed by experts in carcinogenesis and mutagenesis.
CCRIS provides historical information from the years 1985 - 2011. It is no longer updated.
This is an archive assay for CCRIS tumor inhibitor studies.

With `O=C1O[C@H]([C@@H](O)CO)C(O)=C1O`, the “tumour outcome (control, treated, inhibition, significance)” value by setting is: (Carcinogen: N-ETHYL-N-(4-HYDROXYBUTYL)NITROSAMINE, 54897-62-0, Dose [Inhibitor]: 5% IN BASAL DIET ADMINISTERED SIMULTANEOUSLY WITH CARCINOGEN DOSE FOR 20 WK (STUDY DURATION: 20 WK), Strain/Sex: F344/MALE, Target Tissue: Type of Lesion: BLADDER: PAPILLOMA, Dose [Carcinogen]: 0.021% IN DRINKING WATER FOR 20 WK) 14/15 (93%), 12/15 (80%), 14%, not significant; (Carcinogen: N-METHYL-N-NITROSOUREA, 684-93-5, Dose [Inhibitor]: 0, 5% IN DIET BEGINNING POST CARCINOGEN TREATMENT AND CONTINUING FOR 23 WK (STUDY DURATION: 25 WK), Strain/Sex: F344/MALE, Target Tissue: Type of Lesion: FORESTOMACH: PAPILLOMA, Dose [Carcinogen]: 50 MG/KG 4/2 WK) 8/17 (47%), 7/20 (35%), 26%, not calculated; (Carcinogen: N-METHYL-N-NITROSOUREA, 684-93-5, Dose [Inhibitor]: 0, 5% IN DIET BEGINNING POST CARCINOGEN TREATMENT AND CONTINUING FOR 23 WK (STUDY DURATION: 25 WK), Strain/Sex: F344/MALE, Target Tissue: Type of Lesion: FORESTOMACH: SQUAMOUS CELL CARCINOMA, Dose [Carcinogen]: 50 MG/KG 4/2 WK) 2/17 (12%), 2/20 (10%), 17%, not calculated; (Carcinogen: N-METHYL-N-NITROSOUREA, 684-93-5, Dose [Inhibitor]: 0, 5% IN DIET BEGINNING POST CARCINOGEN TREATMENT AND CONTINUING FOR 23 WK (STUDY DURATION: 25 WK), Strain/Sex: F344/MALE, Target Tissue: Type of Lesion: HEMATOPOIETIC SYSTEM: LYMPHOMA OR LEUKEMIA, Dose [Carcinogen]: 50 MG/KG 4/2 WK) 3/17 (18%), 4/20 (20%), -11%, not calculated; (Carcinogen: N-METHYL-N-NITROSOUREA, 684-93-5, Dose [Inhibitor]: 0, 5% IN DIET BEGINNING POST CARCINOGEN TREATMENT AND CONTINUING FOR 23 WK (STUDY DURATION: 25 WK), Strain/Sex: F344/MALE, Target Tissue: Type of Lesion: SMALL INTESTINE: ADENOCARCINOMA, Dose [Carcinogen]: 50 MG/KG 4/2 WK) 9/17 (53%), 0/20 (0%), 100%, not calculated; (Carcinogen: N-METHYL-N-NITROSOUREA, 684-93-5, Dose [Inhibitor]: 0, 5% IN DIET BEGINNING POST CARCINOGEN TREATMENT AND CONTINUING FOR 23 WK (STUDY DURATION: 25 WK), Strain/Sex: F344/MALE, Target Tissue: Type of Lesion: SMALL INTESTINE: ADENOMA, Dose [Carcinogen]: 50 MG/KG 4/2 WK) 10/17 (59%), 16/20 (80%), -36%, not calculated. The “tumour outcome (control, treated, inhibition, significance)” value is, setting by setting: (Carcinogen: N-METHYL-N-NITROSOUREA, 684-93-5, Dose [Inhibitor]: 0, 5% IN DIET BEGINNING POST CARCINOGEN TREATMENT AND CONTINUING FOR 23 WK (STUDY DURATION: 25 WK), Strain/Sex: F344/MALE, Target Tissue: Type of Lesion: THYROID: ADENOCARCINOMA, Dose [Carcinogen]: 50 MG/KG 4/2 WK) 1/17 (6%), 0/20 (0%), 100%, not calculated; (Carcinogen: N-METHYL-N-NITROSOUREA, 684-93-5, Dose [Inhibitor]: 0, 5% IN DIET BEGINNING POST CARCINOGEN TREATMENT AND CONTINUING FOR 23 WK (STUDY DURATION: 25 WK), Strain/Sex: F344/MALE, Target Tissue: Type of Lesion: THYROID: ADENOMA, Dose [Carcinogen]: 50 MG/KG 4/2 WK) 3/17 (18%), 6/20 (30%), -67%, not calculated; (Carcinogen: N-METHYL-N-NITROSOUREA, 684-93-5, Dose [Inhibitor]: 0, 5% IN DIET BEGINNING POST CARCINOGEN TREATMENT AND CONTINUING FOR 23 WK (STUDY DURATION: 25 WK), Strain/Sex: F344/MALE, Target Tissue: Type of Lesion: TONGUE: PAPILLOMA, Dose [Carcinogen]: 50 MG/KG 4/2 WK) 2/17 (12%), 4/20 (20%), -67%, not calculated; (Carcinogen: N-METHYL-N-NITROSOUREA, 684-93-5, Dose [Inhibitor]: 0, 5% IN DIET BEGINNING POST CARCINOGEN TREATMENT AND CONTINUING FOR 23 WK (STUDY DURATION: 25 WK), Strain/Sex: F344/MALE, Target Tissue: Type of Lesion: TONGUE: SQUAMOUS CELL CARCINOMA, Dose [Carcinogen]: 50 MG/KG 4/2 WK) 2/17 (12%), 2/20 (10%), 17%, not calculated; (Carcinogen: N-METHYL-N-NITROSOUREA, 684-93-5, Dose [Inhibitor]: 0, 5% IN DIET BEGINNING POST CARCINOGEN TREATMENT AND CONTINUING FOR 23 WK (STUDY DURATION: 25 WK), Strain/Sex: F344/MALE, Target Tissue: Type of Lesion: URINARY BLADDER: PAPILLOMA, Dose [Carcinogen]: 50 MG/KG 4/2 WK) 2/17 (12%), 10/20 (50%), -316%, not calculated; (Carcinogen: N-METHYL-N-NITROSOUREA, 684-93-5, Dose [Inhibitor]: 1% IN 20% FAT DIET DAILY STARTING 2 WK BEFORE START OF CARCINOGEN TREATMENT AND CONTINUING FOR DURATION OF STUDY (STUDY, Strain/Sex: F344/FEMALE, Target Tissue: Type of Lesion: COLON: ADENOMA, ADENOCARCINOMA, Dose [Carcinogen]: 2 MG 2/WK FOR 2 WK) 42%, 46%, -10%, not significant. Besides, the outcome (Carcinogen: N-METHYL-N-NITROSOUREA, 684-93-5, Dose [Inhibitor]: 0, 5% IN DIET BEGINNING POST CARCINOGEN TREATMENT AND CONTINUING FOR 23 WK (STUDY DURATION: 25 WK), Strain/Sex: F344/MALE, Target Tissue: Type of Lesion: URINARY BLADDER: TRANSITIONAL CELL CARCINOMA, Dose [Carcinogen]: 50 MG/KG 4/2 WK) was 0/17 (0%), 2/20 (10%), -100%, not calculated.
